Measurements from paper PMC8279416, “Structural Fine-Tuning of Desmuramylpeptide NOD2 Agonists Defines Their In Vivo Adjuvant Activity” (Journal of Medicinal Chemistry, 2021).

Experiments:
[1] = tested on: CD8+ T cells (OT I) cocultured with BMDCs; experiment: BMDC antigen cross-presentation assay with ovalbumin-specific CD8+ T cells; format: cell-based, mouse; conditions: ovalbumin 50 μg/mL, 72 h coculture
Description: To evaluate the adjuvant potential of the two most-promising desmuramylpeptides, 68 and 75, in terms of their effects on DC-mediated activation of CD4^+ and CD8^+ T cells, we used an in vitro antigen-presentation assay with C57BL/6 mouse bone-marrow-derived DCs (BMDCs). Following stimulation with 68 and 75 (1 or 10 μM) in the presence of ovalbumin soluble protein (50 μg/mL), BMDCs were cocultured with carboxyfluorescein succinimidyl ester (CFSE)-labeled naive ovalbumin-specific CD4^+ or CD8^+ T cells, which were isolated from splenocytes of OT II and OT I transgenic mice, respectively. After 3 days of coculture, CD25 (α subunit of IL-2 receptor)[108] expression was determined, along with the CFSE dilution, as markers of T-cell activation and proliferation, respectively. Furthermore, we also examined how this desmuramylpeptide-induced priming of T cells affected the secreted cytokine profiles in BMDC/T-cell cocultures.
CD4^+ and CD8^+ T cells were purified from splenocytes of OT II and OT I transgenic mice using CD4^+ and CD8^+ T cell isolation kits (Miltenyi Biotec, Germany), according to manufacturer instructions. […] Live Thy1.2^+/CD4^+ and Thy1.2^+/CD8^+ were evaluated for CFSE dilution and CD25 expression. […] Statistical significance was determined by one-way ANOVA followed by Dunnett’s multiple comparisons test.

NIH/OlaHsd mice = experiment: In vivo ovalbumin-specific antibody response, second experiment (neutral, anionic, mannosylated liposomes); design: species or system mouse; conditions: for Log10 (anti-OVA IgG1/anti-OVA IgG2a): second in vivo experiment, 0.15 μmol adjuvant, one week after second booster, mean ± SEM of 5 mice
Description: To determine whether the adjuvanticity of 75 can be modulated through changes to the liposomal formulation, a second in vivo experiment was designed in which the adjuvant activities of three different liposomal compositions were compared. Neutral liposomes were prepared from egg phosphatidylcholine and cholesterol.
Multilamellar liposomes were prepared by the modified thin lipid film method as described previously.[130],[131] For the preparation of neutral liposomes, a 7:5 molar ratio of egg-phosphatidylcholine and cholesterol was used. For the preparation of negatively charged liposomes, a 7:5:1 molar ratio of egg-phosphatidylcholine, cholesterol, and dicetylphosphate was used, while a 7:5:0.5 molar ratio of egg-phosphatidylcholine, cholesterol, and Man-PEG-Pam was used in the preparation of mannosylated liposomes. Lipids (total lipid concentration, 4 mg/mL) were dissolved in chloroform/methanol (2:1). A methanol or chloroform/methanol solution of MDP or the desmuramylpeptides was added to the lipid solution for a final concentration of 2 mM and 1.5 mM for the first (Figure 10) and second (Figure 11) experiments, respectively. After rotary evaporation of the solvent, the remaining lipid film was dried in vacuum for 1 h and then dispersed by gentle handshaking in an ovalbumin solution in saline (0.0667 and 0.1 mg/mL for the first and second experiments, respectively). This was then left overnight at 4 °C to swell and stabilize. Liposome size was reduced by sonification. Nonentrapped material was not separated from liposomes, and the complete liposome suspension was used for immunizations.
For the first experiment (Figure 10), sex-matched NIH/OlaHsd mice (five per group) were immunized subcutaneously in the tail base and boosted one time after 21 days. The injection volume in all experimental groups was 0.15 mL per mouse, which corresponds to 10 μg of OVA, […], and 0.30 μmol of MDP and desmuramylpeptides. For the second experiment (Figure 11), sex-matched NIH/OlaHsd mice (five per group) were immunized and boosted two times subcutaneously into the tail base at 21-day intervals. The injection volume in all experimental groups was 0.1 mL per mouse, which corresponds to 10 μg of OVA, 400 μg of lipids, and 0.15 μmol of MDP and 75. The mice were anesthetized with ip application of ketamine/xylazine (25 mg/kg each) prior to blood collection from the axillary plexus on the seventh day after the last booster dose. Individual serum from each animal was decomplemented at 56 °C for 30 min and then stored at −20 °C until tested.
ELISA assays were performed as detailed previously.[46] Briefly, high-binding ELISA plates (Costar, U.S.A.) were coated with a 15 μg/mL solution of ovalbumin in carbonate buffer, pH 9.6, and incubated overnight at room temperature. Nonspecific antibody binding was blocked with 0.5% w/v bovine serum albumin in PBS-T (0.05% (v/v) Tween 20 in phosphate-buffered saline) for 2 h at 37 °C. After washing, five serial dilutions of mice sera and standard preparations were added in duplicate. Plates were incubated overnight at room temperature, washed, and analyzed for ovalbumin-specific IgG levels by incubation with HRP-conjugated goat anti-mouse IgG (2 h at 37 °C) and then, after washing, with 0.6 mg/mL o-phenylenediaminedihydrochloride solution in citrate-phosphate buffer, pH 5.0, with 0.5 μL of 30% H2O2 per milliliter for 30 min at room temperature in the dark. The enzymatic reaction was stopped with 12.5% H2SO4, and absorbance at 492 nm was measured using a microplate reader (Thermo Fisher Scientific, Waltham, MA, U.S.A.). For the determination of ovalbumin-specific IgG1 and IgG2a, the plates were incubated with biotin-conjugated rat anti-mouse IgG1 or IgG2a (2 h at 37 °C) and subsequently with streptavidin–peroxidase for another 2 h at 37 °C. After washing, the substrate solution was added and incubated for 30 min at room temperature in the dark, as described above. […]

| SMILES | BMDC processing and cross-presentation of ovalbumin to CD8+ T cells [1] | Ovalbumin-specific IgG2a response (in words) (NIH/OlaHsd mice; mannosylated liposomes, 0.15 μmol adjuvant per dose) | Ovalbumin-specific IgG1 response (in words) (NIH/OlaHsd mice; negatively charged liposomes, 0.15 μmol adjuvant per dose) | Ovalbumin-specific IgG levels compared to controls without adjuvant (in words) (NIH/OlaHsd mice; regardless of the liposomal composition) | Log10 (anti-OVA IgG1/anti-OVA IgG2a) (NIH/OlaHsd mice; anionic liposomes) | Log10 (anti-OVA IgG1/anti-OVA IgG2a) (NIH/OlaHsd mice; mannosylated liposomes) | Log10 (anti-OVA IgG1/anti-OVA IgG2a) (NIH/OlaHsd mice; neutral liposomes) |
| --- | --- | --- | --- | --- | --- | --- | --- |
| COc1cc(/C=C/C(=O)NCC(=O)N[C@H](C(=O)N[C@H](CCC(=O)OC2CCCC2)C(=O)OC2CCCC2)C(C)C)ccc1O [Compound 68, Dicyclopentyl ((E)-3-(4-Hydroxy-3-methoxyphenyl)acryloyl)glycyl-L-valyl-D-glutamate] | significantly increased | – | – | – | – | – | – |
| CCCCCCCCCCCCCCCCCC(=O)Oc1ccc(/C=C/C(=O)NCC(=O)N[C@H](C(=O)N[C@H](CCC(=O)OCC)C(=O)OCC)C(C)C)cc1OC [Compound 75, Diethyl ((E)-3-(3-Methoxy-4-(stearoyloxy)phenyl)acryloyl)glycyl-L-valyl-D-glutamate] | – | enhanced the production of IgG2a antibodies | diminished IgG1 activity | increased the levels of IgG antibodies | 1.84 ± 0.20 | 2.15 ± 0.17 | 2.27 ± 0.17 |
